Laboratory results: ChEMBL document CHEMBL1133049, “Expeditious synthesis and cytotoxic activity of new cyanoindolo[3,2-c]quinolines and benzimidazo[1,2-c]quinazolines” (Bioorg Med Chem Lett, 2000)
Calls of active or inactive are those of the source. The calls are words filed in the database; no cut-off is given here.

What was measured:
[1] = tested on: HT-29; assay: Cytotoxicity of compound was evaluated on the HT-29 cell line; format: functional, cell-based; conditions: Homo sapiens
[2] = tested on: L1210; assay: Percent perturbations evaluated at 10 uM induced on L1210 cells in the G2+M phase of cell cycle; format: functional, Mus musculus
[3] = tested on: L1210; assay: Antiproliferative activity of compound was assessed using the murine L1210 leukemia cell line; format: functional, cell-based; conditions: Mus musculus
[4] = tested on: L1210; assay: Percent perturbations evaluated at 10 uM induced on L1210 cells in the >G2+M (8N) phase of cell cycle; format: functional, Mus musculus
[5] = tested on: L1210; assay: Percent perturbations evaluated at 10 uM induced on L1210 cells in the >G2+M (8N) phase of cell cycle; inactive; format: functional, cell-based; conditions: Mus musculus

For `CN(C)CCn1c2ccccc2c2c(C#N)nc3ccccc3c21`, the IC50 [1] was 0.68 µM, the Perturbations [2] was 50% and the IC50 [3] was 3.1 µM. The Perturbations [4] was 21%.
In the case of `N#Cc1[nH]c2ccccc2c2nc3ccccc3c1-2`, the IC50 [3] is reported as > 100 µM.
For `N#Cc1nc2ccccc2c2nc3ccccc3n12`, the IC50 [1] was 5.2 µM, the Perturbations [5] was “inactive” and the Perturbations [2] was 61%. For the same compound, the IC50 [3] was 5.4 µM.
`c1ccc2c(c1)ncn1c3ccccc3nc21` was tested, and the IC50 [3] was > 100 µM.
With `Cn1c2ccccc2c2c(C#N)nc3ccccc3c21` the IC50 [3] was 58.8 µM.
